Test results published in patent US8148334B2, “Peptides with capacity for binding with interleukine 10 (IL-10)” (Proyecto de Biomedicina Cima, S.L., priority 2007, dated 2012).
Where two headings read alike, the source gives them in different places. Where a SMILES comes first, the peptide text is derived from it. Where no end group is shown, it is not given here.

What was measured:
[1] = Solubilization of 1 mg/mL peptides in culture medium, DMSO or urea; format: physicochemical; details: for Resuspension with DMSO: DMSO 2% of final volume of 1 mg/mL stock and clean medium, after sonication
Protocol: In order to measure the capacity of the peptides to inhibit IL-10, it is necessary for them to be in solution in the culture medium in which the proliferation assay with MC/9 cells is conducted. To that end, an attempt was first made to dissolve the peptides in complete medium at the concentration of 1 mg/mL. Due to the fact that, of the 26 peptides of Table 1, only 10 were soluble and 2 were partially soluble in these conditions (Table 3), it was necessary to improve the solubility of the remaining peptides by adding different proportions of dimethyl sulfoxide (DMSO) or urea. Other solubilizing agents, such as guanidine hydrochloride, ethanol, methanol, isopropanol, dimethylformamide (DMF), acetone, acetonitrile, ammonia and acetic acid were also tested, but due to the fact that they were not very effective or toxic for the cells, their use was discarded. For the purpose of limiting as much as possible the toxicity of DMSO or urea, the concentration of both agents in the culture medium was kept as low as possible compatible with the in vitro assay. Thus, the maximum concentration of solubilizing agent to be added which allows conducting the in vitro proliferation assay of MC/9 cells was first determined. As indicated above, 1, 0.5, 0.1, 0.05, 0.01, 0.005 and 0.001% acetic acid, ammonia, DMSO, DMF, acetone, acetonitrile, isopropanol, methanol and ethanol and 2, 1, 0.5, 0.250, 0.125, 0.062 and 0.031 M urea and guanidine hydrochloride were tested.
Guanidine hydrochloride was very toxic in all tested concentrations. […] In the case of urea, the limit concentration was 125 mM, and for ammonia, 0.2% (maximum tested). In relation to the alcohols, they were compatible up to 1% (maximum) and acetone and acetonitrile seemed to induce MC/9 cell proliferation. DMSO: • The resuspension of the peptides identified as SEQ ID NO: 5, SEQ ID NO: 6, SEQ ID NO: 9, SEQ ID NO: 12, SEQ ID NO: 15 and SEQ ID NO: 16 with DMSO (2% of the final volume of the 1 mg/mL stock) and clean medium was tested. After subjecting them to sonication, all of them were still cloudy, except the peptide identified as SEQ ID NO: 16. Methanol/Ethanol • To dissolve peptides using these alcohols, it is necessary to use them at 100% and at this concentration they are toxic for MC/9 cells. They are toxic even at 70%. Urea • The peptides identified as SEQ ID NO: 6, SEQ ID NO: 16, SEQ ID NO: 17, SEQ ID NO: 18 and SEQ ID NO: 20 were dissolved in 8 M urea (final concentration 0.8 M in 1 mg/mL) and complete medium. Urea is relatively toxic (cpm without urea 1.128, with 120 mM urea 109, with 80 mM 308 and with 20 mM 800, but the window is maintained).
Of the total of 39 peptides indicated, 11 (in bold print) could not be solubilized with any of the indicated conditions, therefore they could not be tested in the in vitro assay.
The peptides which could not be solubilized with any of the tested conditions are indicated in bold print. part S: partially soluble; S: soluble; I: insoluble

MC/9 cells = experiment: Toxicity: inhibition of mGM-CSF-induced MC/9 cell proliferation; format: cell-based, mouse; details: inhibition of proliferation induced by 0.01 ng/mL mGM-CSF
Text: The addition of peptides with the capacity to inhibit the activity of IL-10 to the MC/9 cell culture, to which exogenous IL-10 has been added, has the effect of inhibiting the proliferation of these cells due to the fact that IL-10 promotes the proliferation thereof. However, the addition of a peptide or any component to the culture (used to improve peptide solubility) which was toxic for MC/9 cells would also have the effect of inhibiting cell proliferation. […] For this purpose, an assay in parallel of the peptides using mouse granulocyte-monocyte colony-stimulating factor (mGM-CSF) (which also promotes MC/9 cell proliferation) instead of IL-10 was conducted. The concentration of mGM-CSF used was 0.01 ng/mL. In this case, IL-4 was not used as co-stimulus. The toxicity was expressed as the percentage of inhibition of the proliferation induced by mGM-CSF.
In the case of the peptides dissolved in urea, when analyzing both the IL-10 inhibition and the toxicity, negative, positive controls and controls with antibody with the concentrations of urea present in the peptide sample (120 mM, 80 mM and 20 mM) as well as controls without urea were included. The percentage of inhibition at each concentration of peptide was calculated comparing the cpm values of the sample with the values of the controls which contained the same concentration of urea.

[2] = 1 mg/mL peptide, read-out: Solubility, Complete medium
[3] = 1 mg/mL peptide, read-out: Solubility, 0.8 M UREA

Molecule FRSFHYHTGRWHWLP [compound 22] has a solubility [1, 2] of less than 1000 µg/mL.

With RFYHADMLLRHVLMM [compound 5] the “Solubility, 0.8 M UREA” value ([1]; 1 mg/mL peptide) was “Turbidity”, the “Solubility, 2% DMSO” value ([1]; 1 mg/mL peptide) was “Turbidity” and the solubility [1, 2] was less than 1000 µg/mL.

With GRFRHYSMLRHHSIR [compound 19] the solubility [1, 2] was greater than 1000 µg/mL.

For GRVPSMFGGHFFFSR [P21], the “Resuspension with DMSO” value [1] was “still cloudy”.

In the case of CC(C)[C@H](NC(=O)[C@H](C)NC(=O)[C@@H](NC(=O)[C@@H]1CCCN1C(=O)[C@H](Cc1c[nH]cn1)NC(=O)[C@H](CCCNC(=N)N)NC(=O)[C@H](CCCNC(=N)N)NC(=O)[C@H](Cc1ccccc1)NC(=O)[C@H](Cc1c[nH]cn1)NC(=O)[C@H](Cc1ccccc1)NC(=O)[C@H](CS)NC(=O)[C@H](CCCNC(=N)N)NC(=O)[C@H](Cc1c[nH]cn1)NC(=O)[C@@H](N)CS)C(C)C)C(=O)N[C@@H](Cc1ccccc1)C(=O)O [P9] (H-CHRCFHFRRHPVAVF-OH; N-terminus and C-terminus assumed), the solubility [1] is reported as “insoluble” and the “Resuspension with DMSO” value [1] is reported as “still cloudy”.

FSWYFRHHRLMVAGP [compound 18] showed a solubility [1, 3] greater than 1000 µg/mL and a solubility [1, 2] of less than 1000 µg/mL.

For IFRVLSRMLPGTSVI [compound 13], the solubility [1, 2] was greater than 1000 µg/mL.

RGWILDVVYLYPGPL [compound 17] showed a solubility [1, 3] of less than 1000 µg/mL and a solubility [1, 2] of less than 1000 µg/mL.

For CC(C)C[C@H](NC(=O)[C@H](Cc1ccccc1)NC(=O)[C@H](C)NC(=O)[C@H](CC(C)C)NC(=O)[C@@H](NC(=O)[C@H](Cc1ccccc1)NC(=O)[C@H](CC(C)C)NC(=O)[C@H](Cc1c[nH]cn1)NC(=O)[C@H](CS)NC(=O)[C@H](CS)NC(=O)[C@H](CCCNC(=N)N)NC(=O)[C@H](Cc1c[nH]cn1)NC(=O)[C@H](C)N)[C@@H](C)O)C(=O)N[C@@H](Cc1ccccc1)C(=O)N[C@@H](C)C(=O)O [compound 21] (H-AHRCCHLFTLAFLFA-OH; N-terminus and C-terminus assumed), the “Solubility, 0.8 M UREA” value ([1]; 1 mg/mL peptide) was “Turbidity” and the solubility [1, 2] was less than 1000 µg/mL.

Molecule ARWMHRHHGWSDRHR [compound 2] has a solubility [1, 2] greater than 1000 µg/mL.

With WAYYHAGHSSFAVWT [P14] the “Resuspension with DMSO” value [1] was “still cloudy”.

With GVLSSIFSWRLVALH [compound 12] the “Solubility, 0.8 M UREA” value ([1]; 1 mg/mL peptide) was “Turbidity”, the “Solubility, 2% DMSO” value ([1]; 1 mg/mL peptide) was “Turbidity” and the solubility [1, 2] was less than 1000 µg/mL.

Work on HRWMPHVFAVRQGAS [compound 7] yielded a solubility [1, 2] greater than 1000 µg/mL.

With RKLRPHWLHFHPVAV [compound 1] the solubility [1, 2] was greater than 1000 µg/mL.

With GRVPSMFGGHFFFSR [compound 15] the “Solubility, 0.8 M UREA” value ([1]; 1 mg/mL peptide) was “Turbidity”, the “Solubility, 2% DMSO” value ([1]; 1 mg/mL peptide) was “Turbidity” and the solubility [1, 2] was less than 1000 µg/mL.

For CC(C)C[C@H](NC(=O)CNC(=O)[C@H](C)NC(=O)[C@H](CS)NC(=O)[C@@H](NC(=O)[C@H](Cc1ccccc1)NC(=O)[C@H](Cc1ccccc1)NC(=O)[C@H](CO)NC(=O)[C@@H](N)CCC(=O)O)C(C)C)C(=O)N[C@@H](CS)C(=O)N[C@@H](CCCNC(=N)N)C(=O)N[C@@H](CC(C)C)C(=O)N[C@@H](CCC(N)=O)C(=O)N1CCC[C@H]1C(=O)N[C@@H](Cc1ccc(O)cc1)C(=O)O [compound 23] (H-ESFFVCAGLCRLQPY-OH; N-terminus and C-terminus assumed), the “Solubility, 0.8 M UREA” value ([1]; 1 mg/mL peptide) was “Turbidity” and the solubility [1, 2] was less than 1000 µg/mL.

For HGFFAGGLAHWHGHR [P26], the “toxicity for MC/9 cells” value (MC/9 cells) was “partially toxic”.

In the case of FSWYFRHHRLMVAGP [P24], the “toxicity for MC/9 cells” value (MC/9 cells) is reported as “partially toxic”.

In the case of CC[C@H](C)[C@H](NC(=O)[C@H](CC(C)C)NC(=O)[C@H](Cc1ccccc1)NC(=O)CNC(=O)[C@@H](NC(=O)[C@H](CC(C)C)NC(=O)[C@H](C)NC(=O)[C@H](CO)NC(=O)[C@H](CS)NC(=O)CN)C(C)C)C(=O)N[C@@H](CC(C)C)C(=O)N[C@@H](CC(C)C)C(=O)N[C@@H](CS)C(=O)N[C@@H](CS)C(=O)N[C@@H](CCSC)C(=O)O [compound 26] (H-GCSALVGFLILLCCM-OH; N-terminus and C-terminus assumed), the “Solubility, 0.8 M UREA” value ([1]; 1 mg/mL peptide) is reported as “Turbidity” and the solubility [1, 2] is reported as less than 1000 µg/mL.

In the case of TRHRHVPRFLPLRHV [P13], the solubility [1] is reported as “soluble”.

In the case of CC(C)[C@H](NC(=O)[C@H](C)NC(=O)[C@@H](NC(=O)[C@@H]1CCCN1C(=O)[C@H](Cc1c[nH]cn1)NC(=O)[C@H](CCCNC(=N)N)NC(=O)[C@H](CCCNC(=N)N)NC(=O)[C@H](Cc1ccccc1)NC(=O)[C@H](Cc1c[nH]cn1)NC(=O)[C@H](Cc1ccccc1)NC(=O)[C@H](CS)NC(=O)[C@H](CCCNC(=N)N)NC(=O)[C@H](Cc1c[nH]cn1)NC(=O)[C@@H](N)CS)C(C)C)C(=O)N[C@@H](Cc1ccccc1)C(=O)O [compound 6] (H-CHRCFHFRRHPVAVF-OH; N-terminus and C-terminus assumed), the “Solubility, 2% DMSO” value ([1]; 1 mg/mL peptide) is reported as “Turbidity”, the solubility [1, 3] is reported as greater than 1000 µg/mL and the solubility [1, 2] is reported as less than 1000 µg/mL.

Molecule HRHFRWLNGMPRLLG [compound 25] has a solubility [1, 2] of less than 1000 µg/mL.

ARFPKELRGSVRSAH [compound 14] gave a solubility [1, 2] greater than 1000 µg/mL.

For TRHRHVPRFLPLRHV [compound 8], the solubility [1, 2] was greater than 1000 µg/mL.

In the case of LFLLSGVFVPDLHEG [compound 24], the “Solubility, 0.8 M UREA” value ([1]; 1 mg/mL peptide) is reported as “Turbidity” and the solubility [1, 2] is reported as less than 1000 µg/mL.

With RMLGFMSGSWRTPVR [compound 11] the solubility [1, 2] was greater than 1000 µg/mL.

In the case of WAYYHAGHSSFAVWT [compound 9], the “Solubility, 0.8 M UREA” value ([1]; 1 mg/mL peptide) is reported as “Turbidity”, the “Solubility, 2% DMSO” value ([1]; 1 mg/mL peptide) is reported as “Turbidity” and the solubility [1, 2] is reported as less than 1000 µg/mL.

For HGFFAGGLAHWHGHR [compound 20], the solubility [1, 3] was greater than 1000 µg/mL and the solubility [1, 2] was less than 1000 µg/mL.

In the case of RFYHADMLLRHVLMM [P8], the “Resuspension with DMSO” value [1] is reported as “still cloudy”.

For WSLLRIVYNRHSHSK [compound 16], the solubility [1, 3] was greater than 1000 µg/mL, the solubility ([1]; 1 mg/mL peptide, read-out: Solubility, 2% DMSO) was less than 1000 µg/mL and the solubility [1, 2] was less than 1000 µg/mL.

GAGVLTPFTWRRFHM [compound 10] showed a solubility [1, 2] greater than 1000 µg/mL.

For GVLSSIFSWRLVALH [P18], the “Resuspension with DMSO” value [1] was “still cloudy”.

PFVVSDIAFMGLFYD [compound 3] showed a solubility [1, 2] of less than 1000 µg/mL.

Molecule AKVPSFRRSSLGSVR [compound 4] has a solubility [1, 2] greater than 1000 µg/mL.
